Experimental data from patent publication US9504675B2, “Alpha-ketoheterocycles and methods of making and using” (The Scripps Research Institute, priority 2011, dated 2016).
Where two headings read alike, the source gives them in different places.

Target: T1, recombinant rat FAAH (rFAAH) (Rattus norvegicus, UniProt P97612)
T1 construct: The truncated rat FAAH (rFAAH) was expressed in E. coli and purified; made in house; host or cells: Escherichia coli
T1 sequence (P97612 30-579 limits assumed): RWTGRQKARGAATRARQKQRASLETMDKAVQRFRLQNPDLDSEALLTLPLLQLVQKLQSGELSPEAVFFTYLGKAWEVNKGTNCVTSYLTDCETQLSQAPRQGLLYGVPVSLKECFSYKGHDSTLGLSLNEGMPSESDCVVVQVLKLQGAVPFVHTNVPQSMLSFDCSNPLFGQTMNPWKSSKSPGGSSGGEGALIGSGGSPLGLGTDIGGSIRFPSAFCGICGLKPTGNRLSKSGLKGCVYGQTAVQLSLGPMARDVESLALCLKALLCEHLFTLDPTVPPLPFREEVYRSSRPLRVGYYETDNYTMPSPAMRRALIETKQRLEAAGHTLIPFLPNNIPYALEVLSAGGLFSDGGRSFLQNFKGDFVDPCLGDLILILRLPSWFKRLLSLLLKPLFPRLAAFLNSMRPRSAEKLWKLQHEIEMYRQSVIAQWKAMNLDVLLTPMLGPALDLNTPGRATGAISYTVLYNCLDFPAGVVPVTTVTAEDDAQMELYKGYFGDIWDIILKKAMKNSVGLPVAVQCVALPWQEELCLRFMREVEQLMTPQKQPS
Assay: Enzyme assay: inhibition of purified recombinant rat FAAH, 14C-oleamide hydrolysis, Ki by Dixon plot
Assay type: biochemical
Method: Enzyme assays were performed at 20-23° C. with purified recombinant rat FAAH expressed in Escherichia coli or with solubilized COS-7 membrane extracts from cells transiently transfected with human FAAH cDNA (where specifically indicated) in a buffer of 125 mM Tris/1 mM EDTA/0.2% glycerol/0.02% Triton X-100/0.4 mM Hepes, pH 9.0.
^14C-labeled oleamide was prepared from ^14C-labeled oleic acid. The truncated rat FAAH (rFAAH) was expressed in E. coli and purified. The purified recombinant rFAAH was used in the inhibition assays unless otherwise indicated. The full-length human FAAH (hFAAH) was expressed in COS-7 cells as described, and the lysate of hFAAH-transfected COS-7 cells was used in the inhibition assays where explicitly indicated.
The inhibition assays were performed as follows. […] The enzyme reaction was terminated by transferring 20 μL of the reaction mixture to 500 μL of 0.1 N HCl at three different time points. The ^14C-labeled oleamide (substrate) and oleic acid (product) were extracted with EtOAc and analyzed by TLC as detailed. The Ki of the inhibitor was calculated using a Dixon plot as described (standard deviations are provided in the Supporting Information tables).

[1] = Ki, Table 3, racemate (enantiomers not separable), indane C2 acyl side chain
[2] = Ki, Table 2, (R)-enantiomer, 1,2,3,4-tetrahydronaphthalene C2 acyl side chain

| Structure (SMILES) | Ki [2] | further results |
| --- | --- | --- |
| COC(=O)c1cccc(-c2cnc(C(=O)C3Cc4ccc(-c5ccccc5)cc4C3)o2)n1 (racemic) [Compound 24, Methyl 6-[2-(5-Phenylindane-2-carbonyl)oxazol-5-yl]pyridine-2-carboxylate] |  | Ki [1]: 6.2 nM |
| O=C(O)c1cccc(-c2cnc(C(=O)C3Cc4ccc(-c5ccccc5)cc4C3)o2)n1 (racemic) [Compound 25, 6-[2-(5-Phenylindane-2-carbonyl)oxazol-5-yl]pyridine-2-carboxylic Acid] |  | Ki [1]: 57 nM |
| O=C(c1ncco1)C1Cc2ccc(OCc3ccccc3)cc2C1 (racemic) [Compound 30, (5-(Benzyloxy)indan-2-yl)(oxazol-2-yl)methanone] |  | Ki (Table 3, racemate (enantiomers not separable), indane C2 acyl side chain, read-out: Ki): 24 nM |
| O=C(c1ncco1)C1CCc2cc(-c3ccccc3)ccc2C1 (single isomer, unassigned) [(R)-3, Oxazol-2-yl(6-phenyl-1,2,3,4-tetrahydronaphthalen-2-yl)methanone] | 460 nM |  |
| COC(=O)c1cnc(C(=O)C2CCc3cc(-c4ccccc4)ccc3C2)o1 (single isomer, unassigned) [(R)-4, Methyl 2-(6-Phenyl-1,2,3,4-tetrahydronaphthalene-2-carbonyl)oxazole-5-carboxylate] | 1400 nM |  |
| N#Cc1cnc(C(=O)C2CCc3cc(-c4ccccc4)ccc3C2)o1 (single isomer, unassigned) [(R)-5, 2-(6-Phenyl-1,2,3,4-tetrahydronaphthalene-2-carbonyl)oxazole-5-carbonitrile] | 62 nM |  |
| O=C(c1ncc(-c2ccccn2)o1)C1CCc2cc(-c3ccccc3)ccc2C1 (single isomer, unassigned) [(R)-6, (6-Phenyl-1,2,4-tetrahydronaphthalen-2-yl)(5-(pyridin-2-yl)oxazol-2-yl)methanone] | 240 nM |  |
| COC(=O)c1cccc(-c2cnc(C(=O)C3CCc4cc(-c5ccccc5)ccc4C3)o2)n1 (single isomer, unassigned) [(R)-7, Methyl 6-(2-(6-Phenyl-1,2,3,4-tetrahydronaphthalene-2-carbonyl)oxazol-5-yl)picolinate] | 700 nM |  |
| O=C(O)c1cccc(-c2cnc(C(=O)C3CCc4cc(-c5ccccc5)ccc4C3)o2)n1 (single isomer, unassigned) [(R)-8, 6-(2-(6-Phenyl-1,2,3,4-tetrahydronaphthalene-2-carbonyl)oxazol-5-yl)picolinic acid] | 500 nM |  |
| O=C(c1ncco1)C1CCc2cc(Oc3ccccc3)ccc2C1 (single isomer, unassigned) [(R)-9, Oxazol-2-yl(6-phenoxy-1,2,3,4-tetrahydronaphthalen-2-yl)methanone] | 410 nM |  |
| COC(=O)c1cnc(C(=O)C2CCc3cc(Oc4ccccc4)ccc3C2)o1 (single isomer, unassigned) [(R)-10, Methyl 2-(6-Phenoxy-1,2,3,4-tetrahydronaphthalene-2-carbonyl)oxazole-5-carboxylate] | 59 nM |  |
| N#Cc1cnc(C(=O)C2CCc3cc(Oc4ccccc4)ccc3C2)o1 (single isomer, unassigned) [(R)-11, 2-(6-Phenoxy-1,2,3,4-tetrahydronaphthalene-2-carbonyl)oxazole-5-carbonitrile] | 54 nM |  |
| O=C(c1ncc(-c2ccccn2)o1)C1CCc2cc(Oc3ccccc3)ccc2C1 (single isomer, unassigned) [(R)-12, (6-Phenoxy-1,2,3,4-tetrahydronaphthalen-2-yl)(5-(pyridin-2-yl)oxazol-2-yl)methanone] | 290 nM |  |
| COC(=O)c1cccc(-c2cnc(C(=O)C3CCc4cc(Oc5ccccc5)ccc4C3)o2)n1 (single isomer, unassigned) [(R)-13, Methyl 6-(2-(6-Phenoxy-1,2,3,4-tetrahydronaphthalene-2-carbonyl)oxazol-5-yl)picolinate] | 870 nM |  |
| O=C(O)c1cccc(-c2cnc(C(=O)C3CCc4cc(Oc5ccccc5)ccc4C3)o2)n1 (single isomer, unassigned) [(R)-14, 6-(2-(6-Phenoxy-1,2,3,4-tetrahydronaphthalene-2-carbonyl)oxazol-5-yl)picolinic acid] | 220 nM |  |
